Earlier results, collected in patent US20260308141A1, “SYNTHESIS OF ORELLANINE” (ONCORENA AB, priority 2023, published 2026).

Key:
[1] = test system: human renal cancer cells
[2] = test system: human renal cancer cells; remark: listed apart in the source

[O-][n+]1ccc(O)c(O)c1-c1c(O)c(O)cc[n+]1[O-] [Orellanine]
active uptake and retention by the cells (inferred from progressing cell death) ([1]; after transient exposure): actively taken up and retained by the cells
uptake in human renal cancer cells ([1]; human renal cancer cells, primary or metastatic): taken up in human renal cancer cells
progress of cell death ([2]; after transient exposure to Orellanine): progressed for many days
killing of human renal cancer cells ([2]; cells derived from a primary tumor or from metastatic tumor tissue): killed them with great efficiency
